Reference: patent US4816393A, “Nucleoside triphosphate-dependent 1-methylhydantoinase, a process for obtaining it and the use thereof” (Boehringer Mannheim GmbH, priority 1984, dated 1989)
Where two headings read alike, the source gives them in different places.

What was measured:
1-methylhydantoinase [1] = assay: Michaelis constants of 1-methylhydantoinase; assay type: biochemical, Arthrobacter species DSM 2563; conditions: pH 7.8
1-methylhydantoinase [2] = assay: Activators of 1-methylhydantoinase; assay type: biochemical, Arthrobacter species DSM 2563
Experimental: Relative activity in % (30 mmol/liter ammonium sulphate (AS)=100)
(§1) The activity determination was carried out as follows: […]
(§2) 2. 1-Methylhydantoin solution: 10 mmol/liter
(§3) Wavelength 546 mn; T=25° C.; light path 1 cm.; final volume 2.03 ml.; extinction coefficient of the dye formed=13 cm^2 /μmol. […]
(§4) ^++ For the investigation according to Points 2, 3b, 4, 5 and 6 given
(§5) 4. Calculation: [formula] Remark: ΔA/min. must not to be more than 0.66; otherwise dilute sample. Lag phase about 5 minutes.

1-methylhydantoinase [3] = assay: Nucleotide specificity of 1-methylhydantoinase (via carbamoylsarcosinamidohydrolase + sarcosine oxidase); assay type: biochemical, Arthrobacter species DSM 2563; conditions: nucleotide 4 mmol/liter
Experimental: Relative activity in % (ATP=100) determined via the reaction sequence catalyzed by carbamoylsarcosinamidohydrolase+sarcosine oxidase:
as §1, §2, §3, §4, §5

1-methylhydantoinase [4] = assay: Inhibitors of 1-methylhydantoinase; assay type: biochemical, Arthrobacter species DSM 2563; conditions: for relative activity %: 7.5 mM Mg++ in the reaction mixture
Experimental: as §1, §2, §3, §4, §5

1-methylhydantoinase [5] = assay: Metal ion dependence of 1-methylhydantoinase activity; assay type: biochemical, Arthrobacter species DSM 2563
Experimental: Relative activity in % (5 mmol/liter magnesium chloride=100)
as §1
2. 1-Methylhydantoin solution: 10 mmol/liter […]
as §4, §5

1-methylhydantoinase [6] = assay: Enzymatic colour test for the determination of creatinine; assay type: biochemical
Excerpt: 1. Enzymatic colour tetst for the determination of 1-methylhydantoin (1-methylhydantoinase/N-carbamoylsarcosinamidohydrolase/sarcosine oxidase reaction with peroxidase/4-aminoantipyrine/2,4,6-tribromo-3-hydroxybenzoicacid colour indicator system) […]
Corresponding to reagent 1.1. of Example 5, however with the addition of creatinine iminohydrolase, 2 U/ml. (final concentration).
Corresponding to Point 1.2 of Example 5 but, as sample, there are used aqueous creatinine solutions (0.0877 to 1.754 mmol/liter) and the incubation period for P and RL is prolonged to 20 minutes.

[7] = activator substance 30 mmol/liter

CN1CC(=O)NC1=O [1-methylhydantoin]
Km (1-methylhydantoinase [1]; 0.15 mol/liter TES, via ATP, read-out: Km 1-methylhydantoin): 20 µM

N.N.O=S(=O)(O)O [(NH4)2 SO4, ammonium sulphate]
Relative activity in % (30 mmol/liter ammonium sulphate (AS)=100) (1-methylhydantoinase [2]; [7]): 100%
Relative activity in % (30 mmol/liter ammonium sulphate (AS)=100) (1-methylhydantoinase [2]; activator substance 10 mol/liter): 95%

Nc1ncnc2c1ncn2[C@@H]1O[C@H](COP(=O)(O)OP(=O)(O)O)[C@@H](O)[C@H]1O [ADP]
Relative activity in % (ATP=100) (1-methylhydantoinase [3]): 1%

Nc1ncnc2c1ncn2[C@@H]1O[C@H](COP(=O)(O)O)[C@@H](O)[C@H]1O [AMP]
Relative activity in % (ATP=100) (1-methylhydantoinase [3]): 0%

Nc1ncnc2c1ncn2[C@@H]1O[C@H](COP(=O)(O)OP(=O)(O)OP(=O)(O)O)[C@@H](O)[C@H]1O [ATP, adenosine-5'-triphosphate]
Relative activity in % (ATP=100) (1-methylhydantoinase [3]): 100%
Km (1-methylhydantoinase [1]; TES 0.15 mol/liter, via sarcosine, read-out: Km ATP): 800 µM

Nc1ccn([C@@H]2O[C@H](COP(=O)(O)OP(=O)(O)OP(=O)(O)O)[C@@H](O)[C@H]2O)c(=O)n1 [CTP]
Relative activity in % (ATP=100) (1-methylhydantoinase [3]): 1.5%

O=C(O)CN(CCN(CC(=O)O)CC(=O)O)CC(=O)O [EDTA]
Inhibition (in words) (1-methylhydantoinase [4]): Significant inhibition
relative activity % (1-methylhydantoinase [4]; EDTA 5 mol/liter (so in the source)): 100%
relative activity % (1-methylhydantoinase [4]; EDTA 10 mol/liter (so in the source)): 42%
relative activity % (1-methylhydantoinase [4]; EDTA 50 mol/liter (so in the source)): 2%

Nc1nc2c(ncn2[C@@H]2O[C@H](COP(=O)(O)OP(=O)(O)OP(=O)(O)O)[C@@H](O)[C@H]2O)c(=O)[nH]1 [GTP]
Relative activity in % (ATP=100) (1-methylhydantoinase [3]): 7%

O=S(=O)([O-])[O-].[K+].[K+] [K2 SO4]
Relative activity in % (30 mmol/liter ammonium sulphate (AS)=100) (1-methylhydantoinase [2]; [7]): 59%

O=S(=O)([O-])[O-].[Li+].[Li+] [Li2 SO4]
Relative activity in % (30 mmol/liter ammonium sulphate (AS)=100) (1-methylhydantoinase [2]; [7]): 40%

[Cl-].[Cl-].[Mg+2] [MgCl2, magnesium chloride]
Relative activity in % (5 mmol/liter magnesium chloride=100) (1-methylhydantoinase [5]; metal salt 1 mmol/liter): 83%
Relative activity in % (5 mmol/liter magnesium chloride=100) (1-methylhydantoinase [5]; metal salt 5 mmol/liter): 100%
Relative activity in % (5 mmol/liter magnesium chloride=100) (1-methylhydantoinase [5]; metal salt 10 mmol/liter): 98%

[Cl][Mn][Cl] [MnCl2]
Relative activity in % (5 mmol/liter magnesium chloride=100) (1-methylhydantoinase [5]; metal salt 5 mmol/liter): 60%

Cl.N [NH4 Cl, ammonium chloride]
Relative activity in % (30 mmol/liter ammonium sulphate (AS)=100) (1-methylhydantoinase [2]; [7]): 91%

CC(=O)O [NH4 acetate]
Relative activity in % (30 mmol/liter ammonium sulphate (AS)=100) (1-methylhydantoinase [2]; [7]): 98%

N [NH4^+]
Activation (in words) (1-methylhydantoinase [2]): Significant activation

O=S(=O)([O-])[O-].[Na+].[Na+] [Na2 SO4]
Relative activity in % (30 mmol/liter ammonium sulphate (AS)=100) (1-methylhydantoinase [2]; [7]): 39%

O=P([O-])([O-])OP(=O)([O-])OP(=O)([O-])[O-].[Na+].[Na+].[Na+].[Na+].[Na+] [Na tripolyphosphate]
Relative activity in % (ATP=100) (1-methylhydantoinase [3]): 0%

[Cl-].[Na+] [NaCl]
Relative activity in % (30 mmol/liter ammonium sulphate (AS)=100) (1-methylhydantoinase [2]; [7]): 41%

[F-].[Na+] [NaF]
Inhibition (in words) (1-methylhydantoinase [4]): Significant inhibition
inhibition (1-methylhydantoinase [4]; 1×10^-2 mol/liter): 100%

O=C(O)O [NaHCO3]
Relative activity in % (30 mmol/liter ammonium sulphate (AS)=100) (1-methylhydantoinase [2]; [7]): 40%

O=P(O)(O)OP(=O)(O)O [PPi, pyrophosphate]
Relative activity in % (ATP=100) (1-methylhydantoinase [3]): 0%

Cc1cn([C@H]2C[C@H](O)[C@@H](COP(=O)(O)OP(=O)(O)OP(=O)(O)O)O2)c(=O)[nH]c1=O [TTP]
Relative activity in % (ATP=100) (1-methylhydantoinase [3]): 0%

O=c1ccn([C@@H]2O[C@H](COP(=O)(O)OP(=O)(O)OP(=O)(O)O)[C@@H](O)[C@H]2O)c(=O)[nH]1 [UTP]
Relative activity in % (ATP=100) (1-methylhydantoinase [3]): 0%

[Cl-].[Cl-].[Zn+2] [ZnCl2]
Relative activity in % (5 mmol/liter magnesium chloride=100) (1-methylhydantoinase [5]; metal salt 5 mmol/liter): 24%

CN(CC(=O)O)C(=N)N [creatine]
colour reaction (1-methylhydantoinase [6]; creatine solution (884 μmol/liter) as sample instead of creatinine, test batch 8.2): no colour reaction

CN1CC(=O)NC1=N [creatinine]
colour reaction (1-methylhydantoinase [6]; creatinine iminohydrolase omitted from Reagent 8.1): no colour reaction

Na hexametaphosphate
Relative activity in % (ATP=100) (1-methylhydantoinase [3]): 0%
